According to patent US20100144729A1, “COUMARIN DERIVATIVES” (priority 2007, published 2010):

Experiments:
S1P1 (EDG-1) = target: T1, S1P1 (EDG-1) (Homo sapiens, UniProt P21453); experiment: GPCR activation assay measuring GTP [γ-35S] binding to membranes from CHO cells expressing human EDG receptors (S1P1); assay type: biochemical; conditions: CHO cell membranes expressing human EDG-1, read-out: S1P-1 EC50
T1 construct: c-myc (N); expressed in transfected cells; homogenized membranes
Method: A.1 In Vitro: GPCR Activation Assay Measuring GTP [γ-^35S] Binding to Membranes Prepared From CHO Cells Expressing Human EDG Receptors
S1P1 (EDG-1) GTP [γ-^35S] binding assay: Homogenized membranes are prepared from CHO cell clones stably expressing a human EDG-1 N-terminal c-myc tag. Cells are grown in suspension in two 850 cm^2 roller bottles for three or fours days before harvesting. The cells are centrifuged down, washed once with cold PBS, and resuspended in ≦20 ml of Buffer A (20 mM HEPES, pH 7.4, 10 mM EDTA, EDTA-free complete protease inhibitor cocktail [1 tablet/25 ml]). The cell suspension is homogenized on ice, using a Polytron homogenizer at 30000 rpm at three intervals of 15 seconds each. The homogenate is first centrifuged at 2000 rpm on a tabletop low speed centrifuge for 10 minutes. The supernatant, after passing through a cell strainer, is then re-centrifuged at 50,000×g for 25 minutes at 4° C. The pellet is resuspended into buffer B (15% glycerol, 20 mM HEPES, pH 7.4, 0.1 mM EDTA, EDTA-free complete protease inhibitor cocktail [1 tablet/10 ml]). Protein concentration of the preparation is determined using the BCA Protein Assay kit (Pierce) using BSA as standard. The membranes are aliquoted and kept frozen at −80° C.
Solutions of test compounds ranging from 10 mM to 0.01 nM are prepared in DMSO. S1P is diluted in 4% BSA solution as positive controls. The desired amount of membrane preparation is diluted with ice-cold assay buffer (20 mM HEPES, pH 7.4, 100 mM NaCl, 10 mM MgCl2, 0.1% Fatty acid-free BSA, 5 μM GDP) and vortexed well. 2 μl or less of compound is distributed into each well of a round-bottom 96-well polystyrene assay plate, followed by addition of 100 μl of diluted membranes (3-10 μg/well) and kept on ice until the addition of hot GTPγS. [^35S]-GTPγS is diluted 1:1000 (v/v) with cold assay buffer and 100 μl is added into each well. The reaction is carried out at room temperature for 90 minutes before the membranes are harvested onto Perkin-Elmer Unifilter® GF/B-96 filter plate using a Packard Filtermate Harvester. After several washes with wash buffer (20 mM HEPES, pH 7.4, 100 mM NaCl, 10 mM MgCl2), and a rinse with 95% ethanol, the filter is dried in a 37° C. oven for 30 minutes. MicroScint-20 is added and the plate sealed for scintillation counting on TopCount. EC50 values are obtained by fitting the GTP [γ-^35S] binding curves (raw data) with the dose response curve-fitting tool of GraphPad Prism. Six or twelve different concentrations are used to generate a concentration response curve (using three data points per concentration).

S1P-2 = target: T2, S1P-2 (Homo sapiens, UniProt O95136); experiment: FLIPR calcium flux assay, S1P-2; assay type: cell-based; conditions: CHO cells expressing S1P receptor
T2 construct: expressed in transfected cells; host or cells: CHO cells under G418 selection
Method: (§1) Compounds of the invention are tested for agonist activity on S1P1, S1P3, S1P5, and […] with a FLIPR calcium flux assay. Briefly, CHO cells expressing an S1P receptor are maintained in F-12K medium (ATCC), containing 5% FBS, with 500 ug/ml of G418. Prior to the assay, the cells are plated in 384 black clear bottom plates at the density of 10,000 cells/well/25 ? l in the medium of F-12K containing 1% FBS. The second day, the cells are washed three times (25 μl/each) with washing buffer. About 25 μl of dye are added to each well and incubated for 1 hour at 37° C. and 5% CO2. The cells are then washed four times with washing buffer (25 μl/each). The calcium flux is assayed after adding 25 μl of SEW2871 (published by Rosen et al., used as reference) solution to each well of cells. The same assay is performed with cells expressing each of the different S1P receptors. Titration in the FLIPR calcium flux assay is recorded over a 3-minute interval, and quantitated as maximal peak height percentage response relative to S1P-1 activation. The compounds of the invention are active in this assay at a concentration of from 10^−12 and 3.10^−[…]. For example example 13 as an EC50 92 nm for S1P-1 and an EC50>1 um for all the other isoforms (S1P-2, S1P-3, S1P-4, S1P-5).

S1P-4 = target: T3, S1P-4 (Homo sapiens, UniProt O95977); experiment: FLIPR calcium flux assay, S1P-4; assay type: cell-based; conditions: CHO cells expressing S1P receptor
T3 construct: expressed in transfected cells; host or cells: CHO cells under G418 selection
T3 sequence (O95977 1-384): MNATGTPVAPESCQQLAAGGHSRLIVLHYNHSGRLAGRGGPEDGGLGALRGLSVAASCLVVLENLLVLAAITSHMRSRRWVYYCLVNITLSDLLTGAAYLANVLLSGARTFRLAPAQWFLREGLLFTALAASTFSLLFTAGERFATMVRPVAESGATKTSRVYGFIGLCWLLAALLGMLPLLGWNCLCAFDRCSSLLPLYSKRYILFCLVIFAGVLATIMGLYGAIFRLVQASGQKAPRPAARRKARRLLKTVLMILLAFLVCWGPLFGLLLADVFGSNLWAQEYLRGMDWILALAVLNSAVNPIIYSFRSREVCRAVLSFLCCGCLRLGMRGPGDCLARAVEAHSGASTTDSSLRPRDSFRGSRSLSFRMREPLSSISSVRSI
Method: as §1

S1P-3 = target: T4, S1P-3 (Homo sapiens, UniProt Q99500); experiment: FLIPR calcium flux assay, S1P-3; assay type: cell-based; conditions: CHO cells expressing S1P receptor
T4 construct: expressed in transfected cells; host or cells: CHO cells under G418 selection
Method: as §1

S1P-5 = target: T5, S1P-5 (Homo sapiens, UniProt Q9H228); experiment: FLIPR calcium flux assay, S1P-5; assay type: cell-based; conditions: CHO cells expressing S1P receptor
T5 construct: expressed in transfected cells; host or cells: CHO cells under G418 selection
Method: as §1

S1P-1 = target: T6, S1P-1 (Homo sapiens, UniProt P21453); experiment: FLIPR calcium flux assay, S1P-1; assay type: cell-based; conditions: CHO cells expressing S1P receptor
T6 construct: expressed in transfected cells; host or cells: CHO cells under G418 selection
Method: as §1

T1 sequence (P21453 whole entry): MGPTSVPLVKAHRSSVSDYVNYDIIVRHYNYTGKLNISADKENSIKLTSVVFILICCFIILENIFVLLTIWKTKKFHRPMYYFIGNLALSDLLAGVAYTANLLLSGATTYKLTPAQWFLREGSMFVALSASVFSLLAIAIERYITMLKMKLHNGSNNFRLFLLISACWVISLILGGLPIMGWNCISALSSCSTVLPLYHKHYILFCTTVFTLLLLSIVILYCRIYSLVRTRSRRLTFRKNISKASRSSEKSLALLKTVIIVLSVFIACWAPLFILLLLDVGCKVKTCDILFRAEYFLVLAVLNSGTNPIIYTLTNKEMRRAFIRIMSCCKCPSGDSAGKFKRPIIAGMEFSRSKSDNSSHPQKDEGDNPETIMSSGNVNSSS
T2 sequence (O95136 whole entry): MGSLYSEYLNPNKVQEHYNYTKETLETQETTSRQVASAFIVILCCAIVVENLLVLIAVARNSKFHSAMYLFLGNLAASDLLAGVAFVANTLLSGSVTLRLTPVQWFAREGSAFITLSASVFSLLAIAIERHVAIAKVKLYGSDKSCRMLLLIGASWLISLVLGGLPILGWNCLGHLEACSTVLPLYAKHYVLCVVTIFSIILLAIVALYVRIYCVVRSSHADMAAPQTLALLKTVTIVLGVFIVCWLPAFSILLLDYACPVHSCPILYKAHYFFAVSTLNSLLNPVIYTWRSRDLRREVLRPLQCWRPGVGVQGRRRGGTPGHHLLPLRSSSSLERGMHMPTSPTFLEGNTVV
T4 sequence (Q99500 whole entry): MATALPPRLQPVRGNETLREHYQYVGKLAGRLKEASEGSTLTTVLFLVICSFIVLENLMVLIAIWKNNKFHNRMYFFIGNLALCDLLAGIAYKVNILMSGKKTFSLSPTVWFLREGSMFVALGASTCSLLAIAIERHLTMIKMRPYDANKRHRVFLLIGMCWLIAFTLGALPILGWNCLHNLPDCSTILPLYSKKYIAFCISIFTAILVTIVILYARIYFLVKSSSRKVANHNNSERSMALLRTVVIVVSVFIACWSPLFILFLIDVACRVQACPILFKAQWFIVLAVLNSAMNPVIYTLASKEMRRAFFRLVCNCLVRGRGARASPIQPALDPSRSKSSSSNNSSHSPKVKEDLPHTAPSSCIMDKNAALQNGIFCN
T6 sequence (P21453 whole entry): as the sequence (P21453 whole entry) above
T5 sequence (Q9H228 whole entry): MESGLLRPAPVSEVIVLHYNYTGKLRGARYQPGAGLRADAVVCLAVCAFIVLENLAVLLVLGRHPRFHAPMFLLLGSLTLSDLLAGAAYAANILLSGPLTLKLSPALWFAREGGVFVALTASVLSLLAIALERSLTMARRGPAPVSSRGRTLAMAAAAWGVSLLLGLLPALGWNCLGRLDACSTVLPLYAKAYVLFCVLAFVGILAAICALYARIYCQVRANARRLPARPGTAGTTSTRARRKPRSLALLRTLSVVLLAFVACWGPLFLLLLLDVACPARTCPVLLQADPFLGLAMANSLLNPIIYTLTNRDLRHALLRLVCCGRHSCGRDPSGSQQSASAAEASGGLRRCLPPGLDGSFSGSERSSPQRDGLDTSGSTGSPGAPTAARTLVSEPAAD

| SMILES | EC50 (S1P1 (EDG-1)) | other results |
| --- | --- | --- |
| CCCc1c(OC)ccc2cc(C(=O)Nc3ccc(C4CCCN4C)cc3)c(=O)oc12 (racemic) [Example 13] |  | EC50 (S1P-2): > 1000 nM; EC50 (S1P-4): > 1000 nM; EC50 (S1P-3): > 1000 nM; EC50 (S1P-5): > 1000 nM; EC50 (S1P-1): 92 nM |
| CCOc1c(OC)ccc2cc(C(=O)Nc3ccc([C@H]4CCCN4)cc3)c(=O)oc12 [Example 8] | 7.5 nM |  |
| CCc1c(OC)ccc2cc(C(=O)Nc3ccc([C@H]4CCCN4)cc3C)c(=O)oc12 [Example 62] | 0.5 nM |  |
| COc1ccc2cc(C(=O)Nc3ccc([C@H]4CCCN4)c(F)c3)c(=O)oc2c1C [Example 72] | 1.8 nM |  |
| Cc1cc([C@H]2CCCN2)ccc1NC(=O)c1cc2ccc(OC(C)C)c(OC(C)C)c2oc1=O [Example 82] | 2.4 nM |  |
| CCCc1c(OC)ccc2cc(C(=O)Nc3ccc([C@H]4COCCN4)cc3)c(=O)oc12 [Example 27] | 0.2 nM |  |
| CCCc1c(OC)ccc2cc(C(=O)Nc3ccc(C4CCCN4)cc3)c(=O)oc12 (stereo not shown) [Example 1, 7-Methoxy-2-oxo-8-propyl-2H-chromene-3-carboxylic acid (4-pyrrolidin-2-yl-phenyl)-amide] | 0.1 nM |  |
| COc1ccc2cc(C(=O)Nc3ccc([C@H]4COCCN4)c(C)c3)c(=O)oc2c1OC(C)C [Example 90] | 6.2 nM |  |
| CCc1c(OC)ccc2cc(C(=O)Nc3ccc(C4CNCCN4)cc3)c(=O)oc12 (single isomer, unassigned) [Example 44] | 0.2 nM |  |

Continued by falling EC50 (S1P1 (EDG-1)), values first:

| EC50 (S1P1 (EDG-1)) | SMILES | other results |
| --- | --- | --- |
| 75.5 nM | COc1ccc2cc(C(=O)Nc3ccc(C4CCCCN4)cc3)c(=O)oc2c1OC(C)C (single isomer, unassigned) [Example 23] |  |
| 12.8 nM | CCOc1ccc2cc(C(=O)Nc3ccc([C@H]4CCCN4)cc3F)c(=O)oc2c1OCC [Example 89] |  |
| 4.6 nM | CCOc1c(OC)ccc2cc(C(=O)Nc3ccc(C4CNCCN4)cc3)c(=O)oc12 (single isomer, unassigned) [Example 53] |  |
| 2.9 nM | COc1ccc2cc(C(=O)Nc3ccc(C4CNCCO4)cc3)c(=O)oc2c1OC(C)C (single isomer, unassigned) [Example 41] |  |
| 2.8 nM | COc1ccc2cc(C(=O)Nc3cccc([C@H]4COCCN4)c3)c(=O)oc2c1OC(C)C [Example 96] |  |
| 0.1 nM | CCCc1c(OC)ccc2cc(C(=O)Nc3ccc(C4CNCCN4)cc3)c(=O)oc12 (racemic) [Example 43] |  |
